In assay [1] the test system is Ba/F3 (EGFR-D770_N771insSVD) subcutaneous allograft tumor. Put plainly: Ba/F3 EGFR D770_N771 ins SVD subcutaneous allograft tumor model. The format is in vivo, Nude mouse (BALB/c Nude). The method, then:
Ba/F3 (EGFR-D770_N771insSVD) cells were artificially constructed cell lines with EGFR-D770_N771insSVD insertion mutation using mouse B cells. The CDX model established by this cell line was used to evaluate the inhibitory effect of preferred compounds on Exon 20 EGFR-D770_N771insSVD insertion mutation in animals.
Nude mouse (BALB/c Nude), Ba/F3 (EGFR-D770_N771insSVD) cell line
1. Cell culture: cells were cultured in vitro in monolayer, culture conditions were RPMI-1640 (cell culture medium) with 10% fetal bovine serum, 100 U/mL penicillin and 100 µg/mL streptomycin, the cells were cultured at a 37° C., 5% CO2 incubator. Conventional digestion with trypsin-EDTA was performed twice a week for passage. When the saturation of Ba/F3 (EGFR-D770_N771insSVD) cell was 80%-90%, and the number reached the requirement, the cells were harvested and counted. The density was 5×10^6 cells.
2. Cell inoculation: 0.2 mL (containing 5×10^6 cells) of Ba/F3 (EGFR-D770_N771insSVD) cell suspension (PBS:Matrigel=1:1) was inoculated subcutaneously on the right back of each mouse, for a total of 64 mice. On the 7th day after inoculation, when the average tumor volume reached 133 mm^3, the randomized stratified grouping method was used to start the grouping administration according to the tumor volume and animal weight. PBS was phosphate buffer and Matrigel was matrix.
3. Administration: The dose was 0-7 days: 10 mg/kg, 8-21 days: 40 mg/kg; oral administration; administration frequency: once a day×3 weeks.
Tumor diameters were measured with vernier calipers twice a week. The calculation formula of tumor volume was: V=0.5a×b^2, wherein a and b represented the long and short diameters of the tumor, respectively.
The antitumor efficacy of the compounds was evaluated by TGI (%) or relative tumor proliferation rate T/C (%).
Relative tumor proliferation rate T/C (%)=TRTV/CRTV×100% (TRTV: mean RTV in the treatment group; CRTV: mean RTV in the solvent control group).
The relative tumor volume (RTV) was calculated according to the results of tumor measurement. The calculation formula was RTV=Vt/V0, wherein V0 was the tumor volume measured at the time of group administration (i.e., D0), and Vt was the tumor volume corresponding to a certain measurement. TRTV and CRTV were taken on the same day.
TGI (%), reflecting the tumor growth inhibition rate. TGI (%)=[(1−(average tumor volume at the end of administration of a treatment group−average tumor volume at the beginning of administration of this treatment group))/(average tumor volume at the end of treatment in the solvent control group−average tumor volume at the beginning of treatment of the solvent control group)]×100%.

Assay [2] has as its target Ba/F3 EGFR-D770_N771insSVD (Homo sapiens, UniProt P00533, DUP768-770, cells depend on it). Put plainly: Anti-proliferation against Ba/F3 exon 20 insertion mutant cells (SVD). Type of assay: cell-based, mouse. The note with it: CTG, 72 hours, read-out: Mutant cells IC50 (anti-proliferation). An excerpt: RPMI1640 medium was purchased from Hyclone, FBS fetal bovine serum was purchased from GBICO, and trypsin-EDTA were both purchased from Giboco. DPBS was purchased from Corning, penicillin/streptomycin solution was purchased from Hyclone, and Cell-Titer Glo reagent was purchased from Promega (Cat. No. G7572). Ba/F3 EGFR-D770_N771insSVD, Ba/F3 EGFR-H773_V774insNPH, Ba/F3 EGFR-V769_D770insASV, BaF3 ERBB2 A775_G776 ins YVMA, the cell lines were constructed by Beijing Kang Yuan Bochuang Biotechnology Co., Ltd. Plate reading instrument: Envision (PerkinElmer).
Cells in logarithmic growth phase were harvested and cell counts were performed using a […]. Cell viability was detected by the Taipan Blue rejection assay. The cell concentration was adjusted; the cell suspension was added to a 96-well plate separately. Cells in 96-well plates were incubated overnight at 37° C., 5% CO2, and 95% humidity. To prepare the drug solution, 10 μL of drug solution was added to each well of the 96-well plate inoculated with cells, and three replicate wells were set up for each drug concentration. The cells in the 96-well plates added with drugs were placed at 37° C., 5% CO2, 95% humidity and continued to incubate for 72 hours, after which CTG analysis was performed and the cells were vibrated on an orbital shaker to lyse the cells. The cell plate was placed at room temperature to stabilize the cold light signal, and the cold light values were read. The data were analyzed using GraphPad Prism 7.0 software, and a nonlinear S-curve regression was used to fit the data to derive the dose-effect curve from which the IC50 values were calculated.
The IC50 of anti-proliferation activity against Ba/F3 Exon20 insertion mutant cells of the compounds of the present disclosure is shown in Table 5.
Ba/F3 exon 20 insertion mutant cells are cell lines with SVD, NPH, ASV, and YVMA insertion mutations artificially constructed using mouse B cells, and it can be seen from Table 5 that the compounds of the present disclosure have better cellular anti-proliferation activity against the […] exon 20 insertion mutations such as SVD, NPH, ASV, and YVMA, and also show better anti-proliferation activity against common exon 20 insertion mutations such as SVD mutation.

The mark [3] stands for this setting: Day 14, oral once a day, 0-7 days 10 mg/kg, 8-21 days 40 mg/kg.

“And” between values parts separate entries of the source, which are not always exact repeats. Equal entries are not always repeated.

Sequence of Ba/F3 EGFR-D770_N771insSVD (P00533 with tags, fused parts or gaps DUP768-770): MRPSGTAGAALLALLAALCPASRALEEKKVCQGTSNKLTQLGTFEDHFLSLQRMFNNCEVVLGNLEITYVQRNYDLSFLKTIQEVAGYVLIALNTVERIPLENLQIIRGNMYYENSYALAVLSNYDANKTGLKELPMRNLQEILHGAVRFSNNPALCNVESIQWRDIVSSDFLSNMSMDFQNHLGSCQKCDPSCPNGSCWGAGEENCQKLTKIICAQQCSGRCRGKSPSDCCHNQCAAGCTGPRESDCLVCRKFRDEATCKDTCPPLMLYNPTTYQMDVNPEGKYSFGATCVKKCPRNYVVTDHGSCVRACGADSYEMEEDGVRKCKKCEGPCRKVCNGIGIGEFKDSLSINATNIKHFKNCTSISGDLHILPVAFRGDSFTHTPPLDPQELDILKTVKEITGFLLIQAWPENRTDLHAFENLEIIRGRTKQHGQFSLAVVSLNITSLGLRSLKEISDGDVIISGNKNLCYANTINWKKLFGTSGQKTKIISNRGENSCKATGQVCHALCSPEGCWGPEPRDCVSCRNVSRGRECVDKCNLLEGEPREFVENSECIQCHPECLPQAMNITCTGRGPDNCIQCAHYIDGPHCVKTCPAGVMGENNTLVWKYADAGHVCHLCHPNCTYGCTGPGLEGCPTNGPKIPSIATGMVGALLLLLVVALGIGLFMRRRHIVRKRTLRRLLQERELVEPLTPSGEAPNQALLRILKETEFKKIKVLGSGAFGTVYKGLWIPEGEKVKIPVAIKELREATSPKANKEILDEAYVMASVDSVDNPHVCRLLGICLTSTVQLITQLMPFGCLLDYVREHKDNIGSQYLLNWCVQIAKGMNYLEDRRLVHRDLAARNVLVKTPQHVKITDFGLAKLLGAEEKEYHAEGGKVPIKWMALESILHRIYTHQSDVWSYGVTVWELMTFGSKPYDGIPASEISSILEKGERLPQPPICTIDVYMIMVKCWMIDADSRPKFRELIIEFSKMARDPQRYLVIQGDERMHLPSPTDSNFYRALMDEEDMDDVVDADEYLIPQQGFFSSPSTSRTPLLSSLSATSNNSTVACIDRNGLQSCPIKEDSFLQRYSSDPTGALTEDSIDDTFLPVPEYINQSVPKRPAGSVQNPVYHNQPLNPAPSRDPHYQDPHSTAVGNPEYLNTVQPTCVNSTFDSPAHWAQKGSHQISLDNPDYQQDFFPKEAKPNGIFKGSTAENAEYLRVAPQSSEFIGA

On to `C=CC(=O)Nc1cc(Nc2ncc(C(=O)OC(C)C)c(-c3cn(OC)c4ccccc34)n2)c(OC)cc1N(C)CCN(C)C.CS(=O)(=O)O` [Compound 1], for which the “Tumor volume (Day 0)” value in assay [1] (Day 0 (grouping), mean ± standard error, n = 6) amounted to 133.2 ± 8.2 mm^3. Further, in assay [1] (setting [3]), the RTV was found to be 1.9, the T/C was 14.9%, the inhibition of tumour growth (TGI) was 92.1% and the “Tumor volume (Day 14)” value was found to be 259.1 ± 35.2 mm^3. The GI50 in assay [2] is 0.027 µM and 0.024 µM.

Values taken from patent US11530196B2, “Pyrimidine compound acting on EGFR and ERBB2” (CHINA RESOURCES PHARMACEUTICAL HOLDINGS COMPANY LIMITED, priority 2019, dated 2022).
